{"source": "paper PMC3753754", "about": "“Andrographis paniculata Extract and Andrographolide Modulate the Hepatic Drug Metabolism System and Plasma Tolbutamide Concentrations in Rats” (Evidence-based Complementary and Alternative Medicine : eCAM, 2013)", "key": {"[1]": {"system": "UDP-glucuronosyltransferase", "test": "Microsomal UGT activity (p-nitrophenol substrate) in liver of treated rats", "assay_type": "in vivo", "conditions": "rat liver; oral 2 g/kg APE or 50 mg/kg AND daily for 5 days", "experimental": "The microsomal UGT activity was determined by using p-nitrophenol as the substrate. The rate of formation of p-nitrophenol glucuronic acid was measured by HPLC/UV [31]. GST activity was determined spectrophotometrically by measuring the formation rate of GSH conjugates."}, "[2]": {"test": "Glucose tolerance test after tolbutamide in high-fat diet-induced obese mice", "assay_type": "in vivo, C57BL/6 mice", "experimental": "Eleven-month-old high-fat diet-fed (45% of energy from fat; Research Diet Inc., New Brunswick, NJ) C57BL/6 mice were obtained from the National Health Research Institute (Miaoli, Taiwan). Control mice were orally administered 0.5% methyl cellulose (10 mL/kg). […] After the 5th daily dose, the mice were deprived of food overnight. On day 6, a 20 mg/kg oral dose of tolbutamide, as a solution in Cremophor EL/ethanol/water (30/10/60, v/v/v), was administered to each mouse. Thirty minutes later, a 1 g/kg dose of glucose, as a solution in water, was administered orally according to the method described by Zong et al.. Serial blood samples were collected up to 8 h after the glucose dose from each mouse. The animals were then killed by exsanguination and the livers collected.\nPlasma glucose was determined by use of enzymatic kits purchased from Audit Diagnostics Co. (Cork, Ireland). Plasma aspartate aminotransferase (AST) and alanine aminotransferase (ALT) activities were measured by using commercial kits purchased from Randox Laboratories (Antrim, UK)."}, "[3]": {"conditions": "obese mice, 2 g/kg APE or 50 mg/kg AND for 5 days, day 6 tolbutamide 20 mg/kg oral, 30 min later glucose 1 g/kg oral"}}, "note": "Marks after values point to notes of the source that are not given here.", "data": [{"compound": "C=C1CC[C@@H]2[C@](C)(CO)[C@H](O)CC[C@@]2(C)[C@@H]1C/C=C1/C(=O)OC[C@H]1O", "note": "[andrographolide, Andrographolide]", "values": [{"measurement": "UDP-glucuronosyltransferase activity", "setting": "[1]", "result": "21.1 ± 6.5^a nmol/min/mg protein"}, {"measurement": "Hypoglycemic effect of tolbutamide in a glucose tolerance test", "setting": "[2]; high-fat diet-induced obese mice treated with APE or andrographolide", "result": "not changed"}, {"measurement": "Plasma glucose, time 0 h", "setting": "[2]; [3]", "result": "80 ± 7^a mg/dL"}, {"measurement": "Plasma glucose, time 0.25 h", "setting": "[2]; [3]", "result": "152 ± 37^a mg/dL"}, {"measurement": "Plasma glucose, time 0.5 h", "setting": "[2]; [3]", "result": "124 ± 28^ab mg/dL"}, {"measurement": "Plasma glucose, time 1 h", "setting": "[2]; [3]", "result": "99 ± 29", "unit": "mg/dL"}, {"measurement": "Plasma glucose, time 2 h", "setting": "[2]; [3]", "result": "88 ± 28", "unit": "mg/dL"}, {"measurement": "Plasma glucose, time 4 h", "setting": "[2]; [3]", "result": "76 ± 17^a mg/dL"}, {"measurement": "Plasma glucose, time 8 h", "setting": "[2]; [3]", "result": "80 ± 17^a mg/dL"}, {"measurement": "Fasting blood glucose level", "setting": "[2]; obese mice, APE or andrographolide for 5 days, fasted overnight", "result": "80 ± 7", "unit": "mg/dL"}, {"measurement": "Area under the plasma glucose concentration versus time curve (AUC0–8 h)", "setting": "[2]; obese mice, APE or andrographolide for 5 days, then tolbutamide and glucose load", "result": "171 ± 42", "unit": "mg·h/dL"}]}]}
